In US5210193A, “Piperazine derivatives” (American Cyanamid Company, priority 1990, dated 1993):
≈ marks a conversion by molar mass, not a printed value. Where two headings read alike, the source gives them in different places.

Legend:
Experiment in all cases: in vitro antibacterial MIC, agar plate dilution
Type in all cases: cell-based
Details in all cases: 35° C.
[1] = tested on: Staphylococcus aureus VGH 84-45
Experimental: (§1) The in vitro antimicrobial spectrum of the compounds of ths invention were determined by the agar plate dilution method with Mueller-Hinton agar and an inoculum of each test organism of approximately 10^4 colony forming units delivered by the Steers replicating device. The minimal inhibitory concentration (MIC) in mcg/ml is defined as the lowest concentration of test compound that inhibited visible growth after 18 hours incubation at 35° C. Results are given in Table I, with the test compounds identified by the number of their hereinafter described examples.

[2] = tested on: Morganella morganii CMC 84-37
Experimental: as §1

[3] = tested on: Streptococcus faecalis UCI 85-19
Experimental: as §1

[4] = tested on: Escherichia coli ATCC 25922
Experimental: as §1

[5] = tested on: Staphylococcus aureus ATTC 29213
Experimental: as §1

[6] = tested on: Pseudomonas aeruginosa LL-1244
Experimental: as §1

[7] = tested on: Serratia marcescens K 84-18
Experimental: as §1

[8] = tested on: Staphylococcus aureus Smith
Experimental: as §1

[9] = tested on: Serratia marcescens VGH 84-30
Experimental: as §1

[10] = tested on: Streptococcus faecalis VGH 84-65
Experimental: as §1

[11] = tested on: Escherichia coli CMC 84-11
Experimental: as §1

[12] = tested on: Proteus rettgeri CMC 84-41
Experimental: as §1

[13] = tested on: Pseudomonas aeruginosa VGH 84-4
Experimental: as §1

Escherichia coli LL 311 = tested on: Escherichia coli LL 311
Experimental: as §1

[14] = Staphylococcus aureus, VGH8445, 18 h, read-out: MIC
[15] = Morganella morganii, CMC8437, 18 h, read-out: MIC
[16] = Enterococcus faecalis, UCI8519, 18 h, read-out: MIC
[17] = Staphylococcus aureus, ATTC29213, 18 h, read-out: MIC
[18] = Pseudomonas aeruginosa, LL1244, 18 h, read-out: MIC
[19] = Serratia marcescens, K8418, 18 h, read-out: MIC
[20] = Serratia marcescens, VGH8430, 18 h, read-out: MIC
[21] = Enterococcus faecalis, VGH8465, 18 h, read-out: MIC
[22] = Providencia rettgeri, CMC8441, 18 h, read-out: MIC
[23] = Pseudomonas aeruginosa, VGH844, 18 h, read-out: MIC
[24] = Escherichia coli, LL311, 18 h, read-out: MIC
[25] = Escherichia coli, ATCC25922, 18 h, read-out: MIC
[26] = Staphylococcus aureus, 18 h, read-out: MIC
[27] = Escherichia coli, CMC8411, 18 h, read-out: MIC

SMILES | MIC [1, 14] | MIC [2, 15] | MIC [3, 16] | MIC [5, 17] | MIC [6, 18] | MIC [7, 19] | MIC [9, 20] | MIC [10, 21] | MIC [12, 22] | MIC [13, 23] | MIC (Escherichia coli LL 311; [24]) | MIC [4, 25] | MIC [8, 26] | MIC [11, 27] | other results
CCn1cc(C(=O)O)c(=O)c2cc(F)c(N3CCN(C)C(CF)C3)c(F)c21 (single isomer, unassigned) [Example 114, (-1-1-Ethyl-6,8-difluoro-7-[3-fluoromethyl)-4-methyl-1-piperazinyl]-1,4-dihydro-4-oxo-3-quinolinecarboxylic acid] | 0.25 µg/mL (≈ 0.652 µM) | 1 µg/mL (≈ 2.61 µM) | 4 µg/mL (≈ 10.4 µM) | 8 µg/mL (≈ 20.9 µM) | 16 µg/mL (≈ 41.7 µM) | 1 µg/mL (≈ 2.61 µM) | 16 µg/mL (≈ 41.7 µM) | 4 µg/mL (≈ 10.4 µM) | 2 µg/mL (≈ 5.22 µM) | 8 µg/mL (≈ 20.9 µM) | 0.25 µg/mL (≈ 0.652 µM) |  |  |  | MIC ([4]; 18 hours): 0.12 µg/mL (≈ 0.313 µM); MIC ([8]; 18 hours): 0.12 µg/mL (≈ 0.313 µM); MIC ([11]; 18 hours): 0.12 µg/mL (≈ 0.313 µM)
CCn1cc(C(=O)O)c(=O)c2cc(F)c(N3CCN(C)C(CF)C3)c(F)c21 (single isomer, unassigned; (+)) [Example 115, (+)-1-Ethyl-6,8-difluoro-7-[3-(fluoromethyl)-4-methyl-1-piperazinyl]-1,4-dihydro-4-oxo-3-quinolinecarboxylic acid] |  |  |  |  |  |  |  |  |  |  |  |  |  |  | MIC ([1]; 18 hours): 0.5 µg/mL (≈ 1.3 µM); MIC ([2]; 18 hours): 1 µg/mL (≈ 2.61 µM); MIC ([3]; 18 hours): 8 µg/mL (≈ 20.9 µM); MIC ([4]; 18 hours): 0.25 µg/mL (≈ 0.652 µM); MIC ([5]; 18 hours): 8 µg/mL (≈ 20.9 µM); MIC ([6]; 18 hours): 16 µg/mL (≈ 41.7 µM); MIC ([7]; 18 hours): 2 µg/mL (≈ 5.22 µM); MIC ([8]; 18 hours): 0.5 µg/mL (≈ 1.3 µM); MIC ([9]; 18 hours): 32 µg/mL (≈ 83.5 µM); MIC ([10]; 18 hours): 8 µg/mL (≈ 20.9 µM); MIC ([11]; 18 hours): 0.5 µg/mL (≈ 1.3 µM); MIC ([12]; 18 hours): 2 µg/mL (≈ 5.22 µM); MIC ([13]; 18 hours): 8 µg/mL (≈ 20.9 µM); MIC (Escherichia coli LL 311; 18 hours): 0.5 µg/mL (≈ 1.3 µM)
COCC1CN(c2cc3c(cc2F)c(=O)c(C(=O)O)cn3C2CC2)CCN1 (stereo not shown) [Example 81, 1-Cyclopropyl-6-fluoro-1,4-dihydro-7-[3-(methoxymethyl)-1-pioerazinyl]-4-oxo-3-quinolinecarboxylic acid] | 0.12 µg/mL (≈ 0.32 µM) | 0.06 µg/mL (≈ 0.16 µM) | 2 µg/mL (≈ 5.33 µM) | 0.25 µg/mL (≈ 0.666 µM) | 8 µg/mL (≈ 21.3 µM) | 0.5 µg/mL (≈ 1.33 µM) | 4 µg/mL (≈ 10.7 µM) | 2 µg/mL (≈ 5.33 µM) | 0.12 µg/mL (≈ 0.32 µM) | 2 µg/mL (≈ 5.33 µM) | 0.03 µg/mL (≈ 0.0799 µM) | 0.25 µg/mL (≈ 0.666 µM) | 0.12 µg/mL (≈ 0.32 µM) | 0.03 µg/mL (≈ 0.0799 µM) | 
COCC1CN(c2cc3c(cc2F)c(=O)c(C(=O)O)cn3-c2ccc(F)cc2)CCN1 (stereo not shown) [Example 82, 6-Fluoro-1-(4-fluorophenyl)-1,4-dihydro-7-(3-(methoxy-methyl)-1-piperazinyl]-4-oxo-3-cuinolinecarboxylic acid] | 0.12 µg/mL (≈ 0.279 µM) | 1 µg/mL (≈ 2.33 µM) | 8 µg/mL (≈ 18.6 µM) | 0.5 µg/mL (≈ 1.16 µM) | 32 µg/mL (≈ 74.5 µM) | 2 µg/mL (≈ 4.66 µM) | 16 µg/mL (≈ 37.3 µM) | 8 µg/mL (≈ 18.6 µM) | 1 µg/mL (≈ 2.33 µM) | 8 µg/mL (≈ 18.6 µM) | 0.25 µg/mL (≈ 0.582 µM) | 0.25 µg/mL (≈ 0.582 µM) | 0.12 µg/mL (≈ 0.279 µM) | 0.12 µg/mL (≈ 0.279 µM) | 
O=C(O)c1cn(C2CC2)c2cc(N3CCNC(COc4ccccc4)C3)c(F)cc2c1=O (stereo not shown) [Example 83, 1-Cyclopropyl-6-fluoro-1,4-dihydro-4-oxo-7-[3-(phenoxymethyl)-1-piperazinyl]-3-quinolinecarboxylic acid] | 0.03 µg/mL (≈ 0.0686 µM) | 0.12 µg/mL (≈ 0.274 µM) | 2 µg/mL (≈ 4.57 µM) | 0.25 µg/mL (≈ 0.571 µM) | 32 µg/mL (≈ 73.1 µM) | 0.5 µg/mL (≈ 1.14 µM) | 4 µg/mL (≈ 9.14 µM) | 2 µg/mL (≈ 4.57 µM) | 0.25 µg/mL (≈ 0.571 µM) | 4 µg/mL (≈ 9.14 µM) | 0.12 µg/mL (≈ 0.274 µM) | 0.12 µg/mL (≈ 0.274 µM) | 0.06 µg/mL (≈ 0.137 µM) | 0.06 µg/mL (≈ 0.137 µM) | 
O=C(O)c1cn(-c2ccc(F)cc2)c2cc(N3CCNC(COc4ccccc4)C3)c(F)cc2c1=O (stereo not shown) [Example 84, 1-(4-Fluorophenvl)-6-fluoro-1,4-dihydro-4-oxo-7-[3-(phenoxymethyl)-1-piperazinyl]-3-quinolinecarboxylic acid] | 0.25 µg/mL (≈ 0.509 µM) | 2 µg/mL (≈ 4.07 µM) | 32 µg/mL (≈ 65.1 µM) | 1 µg/mL (≈ 2.03 µM) | > 128 µg/mL | 32 µg/mL (≈ 65.1 µM) | > 128 µg/mL | 32 µg/mL (≈ 65.1 µM) | 1 µg/mL (≈ 2.03 µM) | 32 µg/mL (≈ 65.1 µM) | 1 µg/mL (≈ 2.03 µM) | 1 µg/mL (≈ 2.03 µM) | 0.25 µg/mL (≈ 0.509 µM) | 1 µg/mL (≈ 2.03 µM) | 
CCn1cc(C(=O)O)c(=O)c2c(F)c(F)c(N3CCNC(c4ccsc4)C3)c(F)c21 (stereo not shown) [Example 90, 1-Ethyl-5,6,8-trifluoro-1,4-dihydro-4-oxo-7-[3-(3-thienyl)-1-piperazinyl]-3-quinolinecarboxylic acid] | 0.25 µg/mL (≈ 0.572 µM) | 0.25 µg/mL (≈ 0.572 µM) | 8 µg/mL (≈ 18.3 µM) | 1 µg/mL (≈ 2.29 µM) | 32 µg/mL (≈ 73.2 µM) | 1 µg/mL (≈ 2.29 µM) | 16 µg/mL (≈ 36.6 µM) | 8 µg/mL (≈ 18.3 µM) | 1 µg/mL (≈ 2.29 µM) | 16 µg/mL (≈ 36.6 µM) | 0.25 µg/mL (≈ 0.572 µM) | 0.25 µg/mL (≈ 0.572 µM) | 0.25 µg/mL (≈ 0.572 µM) | 0.25 µg/mL (≈ 0.572 µM) | 
CCn1cc(C(=O)O)c(=O)c2c(F)c(F)c(N3CCNC(C)C3)c(F)c21 (stereo not shown) [Example 91, 1-Ethyl-5,6,8-trifluoro-1,4-dihydro-7-(3-methyl-1-piperazinyl)-4-oxo-3-quinolinecarboxylic acid] | 2 µg/mL (≈ 5.42 µM) | 0.12 µg/mL (≈ 0.325 µM) | 32 µg/mL (≈ 86.6 µM) | 4 µg/mL (≈ 10.8 µM) | 8 µg/mL (≈ 21.7 µM) | 0.5 µg/mL (≈ 1.35 µM) | 16 µg/mL (≈ 43.3 µM) | 32 µg/mL (≈ 86.6 µM) | 0.25 µg/mL (≈ 0.677 µM) | 8 µg/mL (≈ 21.7 µM) | 0.25 µg/mL (≈ 0.677 µM) | 0.5 µg/mL (≈ 1.35 µM) | 2 µg/mL (≈ 5.42 µM) | 0.25 µg/mL (≈ 0.677 µM) | 
O=C(O)c1cn(-c2ccc(F)cc2)c2cc(N3CCNC(c4ccsc4)C3)c(F)cc2c1=O (stereo not shown) [Example 100] | 0.03 µg/mL (≈ 0.0642 µM) | 0.5 µg/mL (≈ 1.07 µM) | 2 µg/mL (≈ 4.28 µM) | 0.06 µg/mL (≈ 0.128 µM) | 16 µg/mL (≈ 34.2 µM) | 4 µg/mL (≈ 8.56 µM) | 64 µg/mL (≈ 137 µM) | 2 µg/mL (≈ 4.28 µM) | 1 µg/mL (≈ 2.14 µM) | 8 µg/mL (≈ 17.1 µM) | 0.25 µg/mL (≈ 0.535 µM) | 0.25 µg/mL (≈ 0.535 µM) | 0.008 µg/mL (≈ 0.0171 µM) | 0.12 µg/mL (≈ 0.257 µM) | 
CCn1cc(C(=O)O)c(=O)c2cc(F)c(N3CCNC(c4ccccn4)C3)c(F)c21 (stereo not shown) [Example 116] | 0.12 µg/mL (≈ 0.29 µM) | 0.25 µg/mL (≈ 0.603 µM) | 2 µg/mL (≈ 4.83 µM) | 2 µg/mL (≈ 4.83 µM) | 8 µg/mL (≈ 19.3 µM) | 0.5 µg/mL (≈ 1.21 µM) | 8 µg/mL (≈ 19.3 µM) | 2 µg/mL (≈ 4.83 µM) | 0.5 µg/mL (≈ 1.21 µM) | 4 µg/mL (≈ 9.65 µM) | 0.12 µg/mL (≈ 0.29 µM) | 0.06 µg/mL (≈ 0.145 µM) | 0.12 µg/mL (≈ 0.29 µM) | 0.06 µg/mL (≈ 0.145 µM) | 
CCn1cc(C(=O)O)c(=O)c2cc(F)c(N3CCNC(C(C)(F)F)C3)c(F)c21 (stereo not shown) [Example 117] | 0.5 µg/mL (≈ 1.25 µM) | 0.25 µg/mL (≈ 0.623 µM) | 8 µg/mL (≈ 19.9 µM) | 2 µg/mL (≈ 4.98 µM) | 8 µg/mL (≈ 19.9 µM) | 0.25 µg/mL (≈ 0.623 µM) | 8 µg/mL (≈ 19.9 µM) | 8 µg/mL (≈ 19.9 µM) | 0.5 µg/mL (≈ 1.25 µM) | 4 µg/mL (≈ 9.97 µM) | 0.12 µg/mL (≈ 0.299 µM) | 0.06 µg/mL (≈ 0.149 µM) | 0.5 µg/mL (≈ 1.25 µM) | 0.12 µg/mL (≈ 0.299 µM) | 
